Consider one compound from patent US7669997B2, “Ink-jet textile printing method” (Konica Minolta Holdings, Inc., priority 2004, dated 2010).

In general, pKa refers to the negative logarithm of the acid dissociation constant.

A short description of the data set: pKa (acid dissociation constant) of dispersing agents and acids. The data set is classed as physicochemical. To be noted: acid of pretreatment solution. The text has this:
The pKa value, as described in the present invention, is also called an acid dissociation constant, which is detailed, for example, in Buichi Sakaguchi and Keihei Ueno, Kinzoku Chelates [III] (Metal Chelates [III]), Nanko Do, which describes pKa values of acidic dissociating groups. Further, it is possible to determine the pKa of compounds, which are not described in the above reference, employing conventional methods. For example, it is possible to determine the pKa employing the method described, for example, in Jikken Kagaku Koza 5 Netsuteki Sokutei oyobi Heiko (Experimental Chemistry Lecture 5 Thermal Measurements and Equilibrium) page 460, edited by Nihon Kagaku Kai, Maruzen Co., Ltd.

On to `O=C(O)/C=C\C(=O)O` [maleic acid], for which the pKa was below 2 (first listed pKa value) and 5.8 (second listed pKa value).
